Assay results: US12129223B2, “Lipids for use in lipid nanoparticle formulations” (Acuitas Therapeutics, Inc., priority 2021, dated 2024)

What was measured:
[1] = test system: luciferase expression in the liver; test: Luciferase mRNA in vivo evaluation using lipid nanoparticle compositions; set-up: species or system mice; settings: LNP with FLuc mRNA, tail vein injection; for Liver Luc, *Determined at 0.5 mg/kg: 0.5 mg mRNA/kg (starred cells of the 0.3 mg/kg column), liver 4 hours after administration; for Liver Luc @ 0.3 mg/kg: 0.3 mg mRNA/kg; for Liver Luc @ 0.3 mg/kg / Liver Luc @ 1.0 mg/kg: ng luciferase/g liver 4 hours after administration; for Liver Luc @ 1.0 mg/kg: 1.0 mg mRNA/kg
Description: A lipid of structure (I), DSPC, cholesterol and PEG-lipid are solubilized in ethanol at a molar ratio of 50:10:38.5:1.5 or 47.5:10:40.7:1.8. Lipid nanoparticles (LNP) are prepared at a total lipid to mRNA weight ratio of approximately 10:1 to 40:1. Briefly, the mRNA is diluted to 0.2 mg/mL in 10 to 50 mM citrate buffer, pH 4 or 10 to 25 mM acetate buffer, pH 4. Syringe pumps are used to mix the ethanolic lipid solution with the mRNA aqueous solution at a ratio of about 1:5 to 1:3 (vol/vol) with total flow rates above 15 mL/min. The ethanol is then removed and the external buffer replaced with PBS by dialysis. Finally, the lipid nanoparticles are filtered through a 0.2 µm pore sterile filter.
Studies are performed in 6-8 week old female C57BL/6 mice (Charles River) 8-10 week old CD-1 (Harlan) mice (Charles River) according to guidelines established by an institutional animal care committee (ACC) and the Canadian Council on Animal Care (CCAC). Varying doses of mRNA-lipid nanoparticle are systemically administered by tail vein injection and animals euthanized at a specific time point (e.g., 4 hours) post-administration. Liver and spleen are collected in pre-weighed tubes, weights determined, immediately snap frozen in liquid nitrogen and stored at −80° C. until processing for analysis.
For liver, approximately 50 mg is dissected for analyses in a 2 mL FastPrep tubes (MP Biomedicals, Solon OH). ¼″ ceramic sphere (MP Biomedicals) is added to each tube and 500 μL of Glo Lysis Buffer—GLB (Promega, Madison WI) equilibrated to room temperature is added to liver tissue. Liver tissues are homogenized with the FastPrep24 instrument (MP Biomedicals) at 2×6.0 m/s for 15 seconds. Homogenate is incubated at room temperature for 5 minutes prior to a 1:4 dilution in GLB and assessed using SteadyGlo Luciferase assay system (Promega). Specifically, 50 μL of diluted tissue homogenate is reacted with 50 μL of SteadyGlo substrate, shaken for 10 seconds followed by 5 minute incubation and then quantitated using a CentroXS^3 LB 960 luminometer (Berthold Technologies, Germany). The amount of protein assayed is determined by using the BCA protein assay kit (Pierce, Rockford, IL). Relative luminescence units (RLU) are then normalized to total μg protein assayed. To convert RLU to ng luciferase a standard curve is generated with QuantiLum Recombinant Luciferase (Promega).
The FLuc mRNA (L-6107) from Trilink Biotechnologies will express a luciferase protein, originally isolated from the firefly, Photinus pyralis. FLuc is commonly used in mammalian cell culture to measure both gene expression and cell viability. It emits bioluminescence in the presence of the substrate, luciferin. This capped and polyadenylated mRNA is fully substituted with 5-methylcytidine and pseudouridine.
Representative compounds of the disclosure shown in Table 2 were formulated using the following molar ratio: 50% cationic lipid/10% distearoylphosphatidylcholine (DSPC)/38.5% Cholesterol/1.5% PEG lipid 2-[2-(ω-methoxy(polyethyleneglycol2000)ethoxy]-N,N-ditetradecyl acetamide) or 47.5% cationic lipid/10% DSPC/40.7% Cholesterol/1.8% PEG lipid. Relative activity was determined by measuring luciferase expression in the liver 4 hours following administration via tail vein injection as described in Example 1 or by measuring the amount of human IgG in mouse serum as described in example 2. The activity was compared at a dose of 1.0 or 0.5 or 0.3 mg mRNA/kg and expressed as ng luciferase/g liver measured 4 hours after administration, as described in Example 1 or as μg IgG/mL serum measured 24 hours after administration, as described in Example 2. Compound numbers in Table 2 refer to the compound numbers of Table 1.

[2] = Determination of pKa of formulated lipids (TNS fluorescence assay in lipid nanoparticles); format: physicochemical; settings: lipid nanoparticles (compound/DSPC/cholesterol/PEG-lipid), lipid formulated in LNP (lipid/DSPC/cholesterol/PEG-lipid), pH at half-maximal intensity
Description: As described elsewhere, the pKa of formulated lipids is correlated with the effectiveness of LNPs for delivery of nucleic acids (see Jayaraman et al, Angewandte Chemie, International Edition (2012), 51(34), 8529-8533; Semple et al, Nature Biotechnology 28, 172-176 (2010)). In some embodiments, the preferred range of pKa is ˜5 to ˜7. The pKa of each lipid is determined in lipid nanoparticles using an assay based on fluorescence of 2-(p-toluidino)-6-napthalene sulfonic acid (TNS). Lipid nanoparticles comprising compound of structure (I)/DSPC/cholesterol/PEG-lipid (50/10/38.5/1.5 or 47.5:10:40.7:1.8 mol %) in PBS at a concentration of 0.4 mM total lipid are prepared using the in-line process as described in Example 1. TNS is prepared as a 100 μM stock solution in distilled water. Vesicles are diluted to 24 μM lipid in 2 mL of buffered solutions containing 10 mM HEPES, 10 mM MES, 10 mM ammonium acetate, and 130 mM NaCl, where the pH ranged from 2.5 to 11. An aliquot of the TNS solution is added to give a final concentration of 1 μM and following vortex mixing fluorescence intensity is measured at room temperature in a SLM Aminco Series 2 Luminescence Spectrophotometer using excitation and emission wavelengths of 321 nm and 445 nm. A sigmoidal best fit analysis is applied to the fluorescence data and the pKa is measured as the pH giving rise to half-maximal fluorescence intensity.

Which “Liver Luc, *Determined at 0.5 mg/kg” value [1] does the source give for CCCCCCCCN(CCCCCCCC)C(=O)CCCCCN(CCO)CCCCCC(=O)N(CCCCCCCC)CCCCCCCC [Compound I-3, 6,6′-((2-hydroxyethyl)azanediyl)bis(N,N-dioctylhexanamide)] here?
Its value is 227 ± 138* ng/g.

And the pKa [2]?
The pKa was 6.87.

For CCCCCCCCCCN(CCCCCCCCCC)C(=O)CCCCCCCN(C)CCCCCCCC(=O)N(CCCCCCCCCC)CCCCCCCCCC [Compound I-6, 8,8′-(methylazanediyl)bis(N,N-didecyloctanamide)], which “Liver Luc @ 0.3 mg/kg” value [1] is on record?
The value was 20084 ± 5967 ng/g.

And the “Liver Luc @ 1.0 mg/kg” value [1]?
Its value is 78367 ± 15904 ng/g.

And the pKa [2]?
Its pKa is 6.19.

For CCCCCCCCN(CCCCCCCC)C(=O)CCCCCCCN(C)CCCCCCCC(=O)N(CCCCCCCC)CCCCCCCC [Compound I-7, 8,8′-(methylazanediyl)bis(N,N-dioctyloctanamide)], which “Liver Luc @ 0.3 mg/kg” value [1] is on record?
Its value is 16595 ± 836 ng/g.

And the “Liver Luc @ 1.0 mg/kg” value [1]?
Its value is 81021 ± 24105 ng/g.

And the pKa [2]?
Its pKa is 6.43.

With CCCCCCCCN(CCCCCCCC)C(=O)CCCCCCCCCN(C)CCCCCCCCCC(=O)N(CCCCCCCC)CCCCCCCC [Compound I-8, 10,10′-(methylazanediyl)bis(N,N-dioctyldecanamide)] as the compound, how does the “Liver Luc @ 0.3 mg/kg” value [1] read?
Its value is 8743 ± 2153 ng/g.

What about the “Liver Luc @ 1.0 mg/kg” value [1] of the same compound?
Its value is 37220 ± 15377 ng/g.

And the pKa [2]?
The pKa was 6.02.

What does the source list for CCCCCCCCCCCCCCCC(=O)N(CCCCCC)CCCCCCN(C)CCCCCCN(CCCCCC)C(=O)CCCCCCCCCCCCCCC [Compound I-9, N,N′-((methylazanediyl)bis(hexane-6,1-diyl))bis(N-hexylpalmitamide)]?
Liver Luc @ 0.3 mg/kg [1]: 4337 ± 1394 ng/g; Liver Luc @ 1.0 mg/kg [1]: 21023 ± 12693 ng/g; pKa [2]: 6.83

Which results are given for CCCCCCCCCCN(CCCCCCCCCC)C(=O)CCCCCN(C)CCCCCC(=O)N(CCCCCCCCCC)CCCCCCCCCC [Compound I-10, 6,6′-(methylazanediyl)bis(N,N-didecylhexanamide)]?
Liver Luc @ 0.3 mg/kg [1]: 10779 ± 2473 ng/g; Liver Luc @ 1.0 mg/kg [1]: 22622 ± 8189 ng/g; pKa [2]: 6.77

Which “Liver Luc @ 0.3 mg/kg” value [1] does the source give for CCCCC/C=C\C/C=C\CCCCCCCC(=O)N(CCCCCC)CCCCCCN(C)CCCCCCN(CCCCCC)C(=O)CCCCCCC/C=C\C/C=C\CCCCC [Compound I-14, (9Z,9′Z,12Z,12′Z)—N,N′-((methylazanediyl)bis(hexane-6,1-diyl))bis(N-hexyloctadeca-9,12-dienamide)] here?
The value was 2738 ± 728 ng/g.

What about the “Liver Luc @ 1.0 mg/kg” value [1] of the same compound?
Its value is 5735 ± 2364 ng/g.

And the pKa [2]?
The pKa was 6.59.

For CCCCCCCCN(CCCCCCCC)C(=O)CCCCCCCCCN(CCCCCCO)CCCCCCCCCC(=O)N(CCCCCCCC)CCCCCCCC [Compound I-18, 10,10′-((6-hydroxyhexyl)azanediyl)bis(N,N-dioctyldecanamide)], which “Liver Luc @ 0.3 mg/kg” value [1] is on record?
The value was 7115 ± 2087 ng/g.

What about the “Liver Luc @ 1.0 mg/kg” value [1] of the same compound?
Its value is 14879 ± 1595 ng/g.

And the pKa [2]?
Its pKa is 6.02.

For CCCCCCCCCCN(CCCCCCCCCC)C(=O)CCCCCCCCCN(CCO)CCCCCCCCCC(=O)N(CCCCCCCCCC)CCCCCCCCCC [Compound I-20, 10,10′-((2-hydroxyethyl)azanediyl)bis(N,N-didecyldecanamide)], which “Liver Luc, *Determined at 0.5 mg/kg” value [1] is on record?
Its value is 879 ± 365* ng/g.

And the pKa [2]?
The pKa was 6.27.

Which “Liver Luc @ 0.3 mg/kg” value [1] does the source give for CCCCCCCCCCN(CCCCCCCCCC)C(=O)CCCCCCCCCN(CCCCO)CCCCCCCCCC(=O)N(CCCCCCCCCC)CCCCCCCCCC [Compound I-25, 10,10′-((4-hydroxybutyl)azanediyl)bis(N,N-didecyldecanamide)] here?
Its value is 20276 ± 3044 ng/g.

And the “Liver Luc @ 1.0 mg/kg” value [1]?
Its value is 64656 ± 24090 ng/g.

And the pKa [2]?
The pKa was 6.28.

With CCCCC(CC)CN(CC(CC)CCCC)C(=O)CCCCCN(CCCCO)CCCCCC(=O)N(CC(CC)CCCC)CC(CC)CCCC (stereo not drawn) [Compound I-27, 6,6′-((4-hydroxybutyl)azanediyl)bis(N,N-bis(2-ethylhexyl)hexanamide)] as the compound, how does the “Liver Luc, *Determined at 0.5 mg/kg” value [1] read?
The value was 21 ± 6* ng/g.

And the pKa [2]?
The pKa was 6.56.

What does the source list for CCCCCCCCCCN(CCCCCCCCCC)C(=O)CCCCCCCCCN(CCCCCCCCCC(=O)N(CCCCCCCCCC)CCCCCCCCCC)CCN(C)C [Compound I-28, 10,10′-((2-(dimethylamino)ethyl)azanediyl)bis(N,N-didecyldecanamide)]?
Liver Luc @ 0.3 mg/kg [1]: 6602 ± 2609 ng/g; Liver Luc @ 1.0 mg/kg [1]: 13298 ± 4040 ng/g; pKa [2]: 6.22

What does the source list for CCCCCCCCCCNC(=O)CCCCN(CCCCCCCC(=O)N(CCCCCCCCCC)CCCCCCCCCC)CCCCCCCC(=O)N(CCCCCCCCCC)CCCCCCCCCC [Compound I-30, 8,8′-((5-(decylamino)-5-oxopentyl)azanediyl)bis(N,N-didecyloctanamide)]?
Liver Luc @ 0.3 mg/kg [1]: 6567 ± 1534 ng/g; Liver Luc @ 1.0 mg/kg [1]: 19625 ± 2173 ng/g; pKa [2]: 6.16

Which “Liver Luc @ 0.3 mg/kg” value [1] does the source give for CCCCCCCCCCN(CCCCCCCCCC)C(=O)CCCCCCCN(CCCCCCCC(=O)N(CCCCCCCCCC)CCCCCCCCCC)CCOCCOC [Compound I-46, 8,8′-((2-(2-methoxyethoxy)ethyl)azanediyl)bis(N,N-didecyloctanamide)] here?
The value was 10201 ± 2440 ng/g.

And the “Liver Luc @ 1.0 mg/kg” value [1]?
Its value is 52937 ± 8101 ng/g.

What about the pKa [2] of the same compound?
Its pKa is 5.91.

For CCCCCCCCCCN(CCCCCCCCCC)C(=O)CCCCCCCN(C)CCCCCCCC(=O)N(CCCCCCCC)CCCCCCCC [Compound I-55, N,N-didecyl-8-((8-(dioctylamino)-8-oxooctyl)(methyl)amino)octanamide], which “Liver Luc @ 0.3 mg/kg” value [1] is on record?
The value was 8244 ± 1599 ng/g.

What about the “Liver Luc @ 1.0 mg/kg” value [1] of the same compound?
The value was 30106 ± 13756 ng/g.

What about the pKa [2] of the same compound?
Its pKa is 6.22.

With CCCCCCCCCCN(CCCCCCCCCC)C(=O)CCCCCCCCCN(CCCCCCCCCC(=O)N(CCCCCCCCCC)CCCCCCCCCC)CCCn1ccnc1 [Compound I-57, 10,10′-((3-(1H-imidazol-1-yl)propyl)azanediyl)bis(N,N-didecyldecanamide)] as the compound, how does the “Liver Luc @ 0.3 mg/kg” value [1] read?
The value was 476 ± 134 ng/g.

And the “Liver Luc @ 1.0 mg/kg” value [1]?
Its value is 1456 ± 518 ng/g.

What about the pKa [2] of the same compound?
The pKa was 6.24.

For CCCCCCCCCN(CCCCCCCCC)C(=O)CCCCCCCN(C)CCCCCCCC(=O)N(CCCCCCCCC)CCCCCCCCC [Compound I-58, 8,8′-(methylazanediyl)bis(N,N-dinonyloctanamide)], which “Liver Luc @ 0.3 mg/kg” value [1] is on record?
The value was 18664 ± 5438 ng/g.

And the “Liver Luc @ 1.0 mg/kg” value [1]?
The value was 73794 ± 14083 ng/g.

What about the pKa [2] of the same compound?
Its pKa is 6.19.

With CCCCCCCCCCN(CCCCCCCCCC)C(=O)CCCCCCCN(C)CCCCCCCC(=O)N(CCCCCCCCC)CCCCCCCCC [Compound I-59] as the compound, how does the “Liver Luc @ 0.3 mg/kg” value [1] read?
The value was 10786 ± 1924 ng/g.

What about the “Liver Luc @ 1.0 mg/kg” value [1] of the same compound?
The value was 43489 ± 5698 ng/g.

And the pKa [2]?
Its pKa is 6.27.
